Test results taken from patent EP2727911B1, “Novel means and methods for treating malaria and other parasitic disorders” (Medizinische Hochschule Hannover, priority 2012, dated 2014).
Counter-ions that a name gives are not always drawn.

Biological target: T1, Dd myosin-1b (Dictyostelium discoideum, UniProt P34092)
T1 sequence (P34092 1-1111): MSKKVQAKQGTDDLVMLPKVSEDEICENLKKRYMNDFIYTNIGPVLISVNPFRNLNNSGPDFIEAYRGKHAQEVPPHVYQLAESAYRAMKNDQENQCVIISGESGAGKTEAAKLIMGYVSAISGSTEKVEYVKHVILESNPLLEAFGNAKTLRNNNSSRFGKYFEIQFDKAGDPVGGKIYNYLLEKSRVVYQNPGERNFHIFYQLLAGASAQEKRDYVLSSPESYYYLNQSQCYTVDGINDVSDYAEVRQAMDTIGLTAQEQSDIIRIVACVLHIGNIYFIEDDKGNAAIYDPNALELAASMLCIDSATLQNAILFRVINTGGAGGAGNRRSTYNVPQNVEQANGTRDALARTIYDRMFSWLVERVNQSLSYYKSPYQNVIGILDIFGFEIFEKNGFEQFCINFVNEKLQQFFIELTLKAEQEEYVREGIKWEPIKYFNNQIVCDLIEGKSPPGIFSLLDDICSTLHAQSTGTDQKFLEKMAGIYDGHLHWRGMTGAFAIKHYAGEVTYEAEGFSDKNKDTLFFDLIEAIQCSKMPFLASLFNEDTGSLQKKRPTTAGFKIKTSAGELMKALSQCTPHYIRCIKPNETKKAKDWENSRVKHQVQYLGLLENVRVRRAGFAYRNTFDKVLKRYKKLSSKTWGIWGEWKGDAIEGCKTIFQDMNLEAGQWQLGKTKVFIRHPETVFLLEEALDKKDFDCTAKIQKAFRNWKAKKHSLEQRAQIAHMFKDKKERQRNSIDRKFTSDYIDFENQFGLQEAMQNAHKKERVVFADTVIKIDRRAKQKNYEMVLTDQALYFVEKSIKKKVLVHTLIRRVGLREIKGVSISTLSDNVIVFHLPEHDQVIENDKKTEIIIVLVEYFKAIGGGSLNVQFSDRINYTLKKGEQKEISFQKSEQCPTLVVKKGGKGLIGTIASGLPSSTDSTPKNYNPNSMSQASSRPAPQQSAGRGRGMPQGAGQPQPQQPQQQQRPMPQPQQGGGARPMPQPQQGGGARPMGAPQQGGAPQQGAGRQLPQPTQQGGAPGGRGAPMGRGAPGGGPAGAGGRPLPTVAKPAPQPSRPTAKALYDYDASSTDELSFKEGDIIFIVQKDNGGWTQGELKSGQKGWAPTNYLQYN
Assay: Actin-activated steady state ATPase assay (PK/LDH-coupled, photometric)
Format: biochemical
Conditions: in the presence of 30 µM F-actin, nonlinear regression
Description: In this assay, the ATPase activity of Dictyostelium discoideum myosin-1b is determined, preferably at a ligand concentration of 25µM. Furthermore, the IC50 concentration has been determined by measuring ATPase activity as a function of inhibitor concentration. Alternatively Dictyostelium discoideum myosin-2 can be used.
Actin-activated steady state ATPase experiments were performed following the absorbance change during NADH oxidation in a PK/LDH-coupled ATPase assay at 340 nm […] (Trentham (1972); Furch (1998)). The photometric steady state ATPase assay was applied to determine the potency of the small molecule compounds to inhibit the enzymatic activity of myosin. Dd myosin-1b was used as a model system for the target protein (Pf myosin A). All experiments were carried out in the presence of 30 µM F-actin and the corresponding half-maximal inhibitory concentrations (IC50) were determined by nonlinear regression.

## COC(=N)Cc1ccc(O)cc1 [BIP13, Methyl-2-(4-hydroxyphenyl)acetimidate·hydrochloride]
  IC50: 8.07 ± 0.8 µM
